Experimental data: the NIST ThermoML archive (doi:10.1016/j.jct.2018.08.005)

Experiment: molar heat capacity at constant pressure; xn = mol fraction of the nth substance listed
Details: 100 kPa, Liquid, DSC

CCOC(F)(C(F)(F)C(F)(F)C(F)(F)F)C(F)(C(F)(F)F)C(F)(F)F (stereo not given) [2-trifluoromethyl-3-ethoxydodecafluorohexane] + CC(C)OC(C)C
molar heat capacity at constant pressure [J/K/mol]
Details	x1 = 0.25	x1 = 0.375	x1 = 0.5	x1 = 0.625	x1 = 0.75	x1 = 1
290.5 K	277.26	310.54	342.56	375.58	407.39	–
295.44 K	279.61	312.95	345.14	378.55	410.41	–
297.91 K	–	–	–	–	–	466.29
300.38 K	281.77	315.36	347.98	381.52	413.77	–
305.32 K	284.47	317.99	350.3	384.2	416.46	–
307.79 K	–	–	–	–	–	472.92
310.26 K	287.71	320.4	353.14	387.17	419.82	–
315.2 K	290.42	322.81	355.98	390.14	422.85	–
317.66 K	–	–	–	–	–	479.54
320.13 K	293.12	325.66	358.82	393.11	425.87	–
325.07 K	295.64	328.29	361.66	396.08	428.9	–
327.54 K	–	–	–	–	–	486.58
330.01 K	298.16	330.92	364.5	399.35	432.26	–
334.95 K	300.69	333.77	367.08	402.32	434.61	–
337.42 K	–	–	–	–	–	494.03
339.89 K	303.21	336.4	369.66	405.29	437.97	–
347.29 K	–	–	–	–	–	500.66
357.17 K	–	–	–	–	–	508.53
367.05 K	–	–	–	–	–	517.23
376.92 K	–	–	–	–	–	523.85
386.8 K	–	–	–	–	–	531.72
